Measurements published in patent publication US10485815B2, “Substituted nucleosides, nucleotides and analogs thereof” (Alios BioPharma, Inc., priority 2012, dated 2019).
Like-named read-outs stand apart in the source and are kept apart here.

Tests used:
[1] = test system: Influenza strain A/WSN/33 (H1N1); experiment: microbe, parasite or virus in culture; assay type: cell-based; settings: A549, 20 h, read-out: % Inhibition
[2] = test system: RSV A2 (ATCC: VR-1540); experiment: RSV RT-PCR based assay in HEp-2 cells; assay type: cell-based; settings: human respiratory syncytial virus
[3] = test system: hPIV3-eGFP; experiment: microbe, parasite or virus in culture; assay type: cell-based, human parainfluenza virus 3; settings: Human respirovirus 3, A549, 72 h
[4] = target: RSV polymerase (Human respiratory syncytial virus A, UniProt P28887); experiment: biochemical
RSV polymerase, sequence (P28887 whole entry, looked up): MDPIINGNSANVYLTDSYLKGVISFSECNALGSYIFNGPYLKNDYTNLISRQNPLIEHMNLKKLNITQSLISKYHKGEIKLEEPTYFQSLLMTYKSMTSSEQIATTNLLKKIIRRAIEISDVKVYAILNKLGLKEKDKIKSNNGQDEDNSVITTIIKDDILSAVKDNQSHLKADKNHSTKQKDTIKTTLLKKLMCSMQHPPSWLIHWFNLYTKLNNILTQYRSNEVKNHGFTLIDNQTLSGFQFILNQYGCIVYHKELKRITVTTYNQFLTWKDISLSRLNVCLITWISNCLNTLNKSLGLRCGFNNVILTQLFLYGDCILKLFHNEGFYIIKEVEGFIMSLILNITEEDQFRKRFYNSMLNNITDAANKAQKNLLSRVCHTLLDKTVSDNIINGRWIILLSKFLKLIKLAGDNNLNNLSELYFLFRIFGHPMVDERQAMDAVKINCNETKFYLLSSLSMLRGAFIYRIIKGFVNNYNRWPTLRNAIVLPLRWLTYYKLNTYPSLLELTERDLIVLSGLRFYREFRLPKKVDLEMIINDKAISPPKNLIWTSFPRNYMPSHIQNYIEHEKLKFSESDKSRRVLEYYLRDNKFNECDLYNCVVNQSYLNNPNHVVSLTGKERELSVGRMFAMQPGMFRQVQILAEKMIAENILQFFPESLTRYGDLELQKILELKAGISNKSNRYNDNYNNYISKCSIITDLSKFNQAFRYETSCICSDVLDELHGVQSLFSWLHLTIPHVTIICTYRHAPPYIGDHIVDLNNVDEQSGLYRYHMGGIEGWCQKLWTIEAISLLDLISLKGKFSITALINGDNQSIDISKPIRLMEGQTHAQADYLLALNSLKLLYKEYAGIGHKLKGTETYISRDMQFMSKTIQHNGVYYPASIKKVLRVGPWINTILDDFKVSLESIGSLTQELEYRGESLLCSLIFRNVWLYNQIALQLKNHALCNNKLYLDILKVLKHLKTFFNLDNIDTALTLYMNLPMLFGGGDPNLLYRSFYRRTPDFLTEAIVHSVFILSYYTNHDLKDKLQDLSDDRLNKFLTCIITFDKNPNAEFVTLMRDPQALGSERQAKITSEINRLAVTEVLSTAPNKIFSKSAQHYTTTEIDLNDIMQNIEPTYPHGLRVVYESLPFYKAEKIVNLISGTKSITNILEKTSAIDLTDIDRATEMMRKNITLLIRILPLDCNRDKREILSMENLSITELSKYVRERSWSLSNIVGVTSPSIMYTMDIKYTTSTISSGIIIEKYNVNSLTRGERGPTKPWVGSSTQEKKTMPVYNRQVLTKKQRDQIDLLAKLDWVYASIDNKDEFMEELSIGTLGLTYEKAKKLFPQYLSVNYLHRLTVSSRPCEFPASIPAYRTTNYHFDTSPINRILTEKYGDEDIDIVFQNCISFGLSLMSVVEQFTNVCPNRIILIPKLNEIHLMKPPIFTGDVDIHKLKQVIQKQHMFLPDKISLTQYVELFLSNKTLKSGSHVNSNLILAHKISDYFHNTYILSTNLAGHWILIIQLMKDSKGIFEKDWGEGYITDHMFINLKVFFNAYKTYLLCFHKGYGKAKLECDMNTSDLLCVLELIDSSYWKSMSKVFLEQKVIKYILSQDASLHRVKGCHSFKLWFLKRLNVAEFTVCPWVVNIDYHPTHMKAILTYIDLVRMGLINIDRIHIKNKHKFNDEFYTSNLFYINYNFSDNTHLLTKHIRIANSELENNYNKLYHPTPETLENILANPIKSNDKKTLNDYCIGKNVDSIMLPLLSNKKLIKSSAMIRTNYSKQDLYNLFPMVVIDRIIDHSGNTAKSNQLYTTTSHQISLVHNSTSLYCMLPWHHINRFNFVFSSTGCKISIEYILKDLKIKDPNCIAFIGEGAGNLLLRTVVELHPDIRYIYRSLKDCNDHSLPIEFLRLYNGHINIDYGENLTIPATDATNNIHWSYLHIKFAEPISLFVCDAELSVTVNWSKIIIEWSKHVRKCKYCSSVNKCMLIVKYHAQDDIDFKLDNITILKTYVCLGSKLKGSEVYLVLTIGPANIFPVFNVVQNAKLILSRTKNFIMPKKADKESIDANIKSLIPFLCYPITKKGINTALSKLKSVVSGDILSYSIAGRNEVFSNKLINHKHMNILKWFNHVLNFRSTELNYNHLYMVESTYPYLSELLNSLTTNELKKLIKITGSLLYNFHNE

[5] = test system: human parainfluenza virus 3 (hPIV3, ATCC: VR-93); experiment: Parainfluenza virus-3 (PIV-3) RT-PCR assay in A549 cells; assay type: cell-based; settings: Human respirovirus 3, 168 h, hPIV3 MOI 0.1, 7 days after infection
[6] = 96 h, RT-PCR assay, HEp-2 cells, RSV A2 MOI 0.1, 4 days after infection, read-out: EC50

Structure (SMILES)	EC50 [1]	EC50 [2, 6]	EC50 [4]	other results
C#C[C@]1(CO)O[C@@H](n2ccc(N)nc2=O)[C@H](F)[C@@H]1O [Compound 1a]	100 to 250 µM	–	–	EC50 ([2]; HEp-2, 96 h): 10 to 100 µM
C=C[C@]1(CO)O[C@@H](n2ccc(N)nc2=O)[C@H](F)[C@@H]1O [Compound 4a]	100 to 250 µM	10 to 100 µM	–	EC50 [3]: > 100 µM
C=C=C[C@]1(CO)O[C@@H](n2ccc(N)nc2=O)[C@H](F)[C@@H]1O [Compound 11a]	–	1 to 10 µM	–	–
Nc1ccn([C@@H]2O[C@@]3(CO)CO[C@H]3[C@H]2F)c(=O)n1 [Compound 12a]	100 to 250 µM	–	–	–
CC[C@]1(COP2(=O)OCc3cccc(C)c3O2)O[C@@H](n2ccc(N)nc2=O)[C@H](F)[C@@H]1O (stereo partly shown) [Compound 14a]	–	–	–	EC50 ([2]; HEp-2, 96 h): < 1 µM
C=C[C@]1(COP(=O)(N[C@@H](C)C(=O)OC(C)C)Oc2ccccc2)O[C@@H](n2ccc(N)nc2=O)[C@H](F)[C@@H]1O (stereo partly shown) [Compound 16a]	100 to 250 µM	–	–	–
C=C[C@]1(COP(=O)(N[C@@H](C)C(=O)OC(C)C)Oc2ccccc2)O[C@@H](n2ccc(=O)[nH]c2=O)[C@H](F)[C@@H]1O (stereo partly shown) [Compound 17a]	100 to 250 µM	–	–	–
C#C[C@]1(COP(=O)(N[C@@H](C)C(=O)OC(C)C)Oc2ccccc2)O[C@@H](n2ccc(=O)[nH]c2=O)[C@H](F)[C@@H]1O (stereo partly shown) [Compound 18a]	100 to 250 µM	–	–	–
CCC[C@]1(CO)O[C@@H](n2ccc(N)nc2=O)[C@H](F)[C@@H]1O [Compound 21a]	100 to 250 µM	< 1 µM	–	–
C=C[C@]1(CO)O[C@@H](n2cnc3c(=O)[nH]c(N)nc32)[C@H](F)[C@@H]1O [Compound 25a, 2′-Deoxy-2′-fluoro-4′-C-(ethenyl)guanosine]	< 20 µM	10 to 100 µM	–	–
N#C[C@]1(CO)O[C@@H](n2cnc3c(=O)[nH]c(N)nc32)[C@H](F)[C@@H]1O [Compound 26a]	100 to 250 µM	1 to 10 µM	–	–
C#C[C@]1(CO)O[C@@H](n2cnc3c(=O)[nH]c(N)nc32)[C@H](F)[C@@H]1O [Compound 27a]	20 to 100 µM	1 to 10 µM	–	–
CO[C@]1(CO)O[C@@H](n2cnc3c(=O)[nH]c(N)nc32)[C@H](F)[C@@H]1O [Compound 28a]	100 to 250 µM	1 to 10 µM	–	–
CC(C)(C)C(=O)OCOP(=O)(OCOC(=O)C(C)(C)C)OC[C@@]1(CCl)O[C@@H](n2ccc(N)nc2=O)[C@H](F)[C@@H]1O [Compound 30a]	100 to 250 µM	< 1 µM	–	–
CC[C@]1(COP(=O)(OCOC(=O)C(C)(C)C)OCOC(=O)C(C)(C)C)O[C@@H](n2ccc(N)nc2=O)[C@H](F)[C@@H]1O [Compound 31a]	100 to 250 µM	1 to 10 µM	–	–
CC[C@]1(COP(=O)(OCCSC(=O)C(C)(C)C)OCCSC(=O)C(C)(C)C)O[C@@H](n2ccc(N)nc2=O)[C@H](F)[C@@H]1O [Compound 33a]	–	< 1 µM	–	–
CC[C@]1(COP(=O)(O)OP(=O)(O)OP(=O)(O)O)O[C@@H](n2ccc(N)nc2=O)[C@H](F)[C@@H]1O [Compound 36a]	–	–	< 2000 nM	–
C#C[C@]1(COP(=O)(O)OP(=O)(O)OP(=O)(O)O)O[C@@H](n2ccc(N)nc2=O)[C@H](F)[C@@H]1O [Compound 36c]	–	–	< 2000 nM	–
CC(F)[C@]1(COP(=O)(O)OP(=O)(O)OP(=O)(O)O)O[C@@H](n2ccc(N)nc2=O)[C@@H](F)[C@H]1O (stereo partly shown) [Compound 36e]	–	–	< 2000 nM	–
CC(C)CC[C@]1(COP(=O)(O)OP(=O)(O)OP(=O)(O)O)O[C@@H](n2ccc(N)nc2=O)[C@H](F)[C@@H]1O [Compound 36i]	–	–	2000 to 10000 nM	–
C=C(C)[C@]1(COP(=O)(O)OP(=O)(O)OP(=O)(O)O)O[C@@H](n2ccc(N)nc2=O)[C@H](F)[C@@H]1O [Compound 36j]	–	–	2000 to 10000 nM	–
CC[C@]1(CO)O[C@@H](n2cnc3c(=O)[nH]c(N)nc32)[C@H](F)[C@@H]1O [Compound 39a]	20 to 100 µM	1 to 10 µM	–	–
CC(F)[C@]1(CO)O[C@@H](n2ccc(N)nc2=O)[C@H](F)[C@@H]1O (stereo partly shown) [Compound 40a]	–	–	–	EC50 [5]: > 100 µM; EC50 [3]: > 100 µM

Structure (SMILES)	EC50 [1]	EC50 [2, 6]	EC50 [4]	other results
Nc1ccn([C@@H]2O[C@@](CO)(C3CC3)[C@@H](O)[C@H]2F)c(=O)n1 [Compound 41a]	–	1 to 10 µM	–	–
COC[C@]1(CO)O[C@@H](n2ccc(N)nc2=O)[C@H](F)[C@@H]1O [Compound 43a]	–	–	–	EC50 [5]: > 100 µM; EC50 [3]: > 100 µM
CC(C)(C)C(=O)OCOP(=O)(OCOC(=O)C(C)(C)C)OC[C@@]1(CCl)O[C@@H](n2ccc(=O)[nH]c2=O)[C@H](F)[C@@H]1O [Compound 45a]	–	10 to 100 µM	–	–
CC(C)C(=O)OC[C@@]1(CCl)O[C@@H](n2ccc(N)nc2=O)[C@H](F)[C@@H]1OC(=O)C(C)C [Compound 46a]	–	1 to 10 µM	–	–
CCCCC(=O)OC[C@@]1(CCl)O[C@@H](n2ccc(N)nc2=O)[C@H](F)[C@@H]1OC(=O)CCCC [Compound 48a]	–	1 to 10 µM	–	–
O=c1ccn([C@@H]2O[C@](CCl)(COP(=O)(O)OP(=O)(O)OP(=O)(O)O)[C@@H](O)[C@H]2F)c(=O)[nH]1 [Compound 56a]	–	–	2000 to 10000 nM	–
Nc1ccn([C@@H]2O[C@](CF)(COP(=O)(O)OP(=O)(O)OP(=O)(O)O)[C@@H](O)[C@H]2F)c(=O)n1 [Compound 56c]	–	–	< 2000 nM	–
Nc1ccn([C@@H]2O[C@@](COP(=O)(O)OP(=O)(O)OP(=O)(O)O)(C3CC3)[C@@H](O)[C@H]2F)c(=O)n1 [Compound 56d]	–	–	< 2000 nM	–
CC(F)[C@]1(COP(=O)(O)OP(=O)(O)OP(=O)(O)O)O[C@@H](n2ccc(N)nc2=O)[C@H](F)[C@@H]1O (stereo partly shown) [Compound 56e]	–	–	< 2000 nM	–
O=c1nc(NO)ccn1[C@@H]1O[C@@](CO)(CCl)[C@@H](O)[C@H]1F [Compound 73a]	–	10 to 100 µM	–	–
Nc1nc(=O)n([C@@H]2O[C@@](CO)(CCl)[C@@H](O)[C@H]2F)cc1F [Compound 76a]	–	< 1 µM	–	–
Nc1nc2c(ncn2[C@@H]2O[C@@](CO)(CCl)[C@@H](O)[C@H]2F)c(=O)[nH]1 [Compound 81a]	–	1 to 10 µM	–	–
C[C@]1(CO)O[C@@H](n2cnc3c(=O)[nH]c(N)nc32)[C@H](F)[C@@H]1O [Compound 82a]	–	< 1 µM	–	–
COC[C@]1(COP(=O)(O)OP(=O)(O)OP(=O)(O)O)O[C@@H](n2ccc(N)nc2=O)[C@@H](F)[C@H]1O [Compound 97a]	–	–	< 2000 nM	–
CSC[C@]1(COP(=O)(O)OP(=O)(O)OP(=O)(O)O)O[C@@H](n2ccc(N)nc2=O)[C@@H](F)[C@H]1O [Compound 97b]	–	–	< 2000 nM	–
Nc1ccn([C@@H]2O[C@](CBr)(COP(=O)(O)OP(=O)(O)OP(=O)(O)O)[C@H](O)[C@@H]2F)c(=O)n1 [Compound 97c]	–	–	< 2000 nM	–
Nc1nc(=O)n([C@@H]2O[C@](CCl)(COP(=O)(O)OP(=O)(O)OP(=O)(O)O)[C@H](O)[C@@H]2F)cc1F [Compound 97g]	–	–	< 2000 nM	–
Nc1ncnc2c1ncn2[C@@H]1O[C@](CCl)(COP(=O)(O)OP(=O)(O)OP(=O)(O)O)[C@@H](O)[C@H]1F [Compound 98b]	–	–	< 2000 nM	–
Nc1ncnc2c1ncn2[C@@H]1O[C@](CF)(COP(=O)(O)OP(=O)(O)OP(=O)(O)O)[C@@H](O)[C@H]1F [Compound 98c]	–	–	< 2000 nM	–
CC(C)OC(=O)OCOP(=O)(OCOC(=O)OC(C)C)OC[C@@]1(C2CC2)O[C@@H](n2ccc(N)nc2=O)[C@H](F)[C@@H]1O [Compound 105a]	–	10 to 100 µM	–	–
COC[C@]1(COP(=O)(OCOC(=O)OC(C)C)OCOC(=O)OC(C)C)O[C@@H](n2ccc(N)nc2=O)[C@H](F)[C@@H]1O [Compound 106a]	–	10 to 100 µM	–	–
CC[C@]1(COC(=O)C(C)C)O[C@@H](n2ccc(N)nc2=O)[C@H](F)[C@@H]1OC(=O)C(C)C [Compound 108a]	–	1 to 10 µM	–	–
